According to the NIST ThermoML archive (doi:10.1021/je0302001):
Numbers after ± are expanded uncertainties.

Experiment: mn = molality of the nth substance listed, in mol/kg
Conditions: 101.3 kPa, Liquid; for viscosity: Capillary tube (Ostwald / Ubbelohde) method

O=[N+]([O-])[O-].O=[N+]([O-])[O-].[Zn+2] [nitric acid, zinc salt] + O
Conditions | mass density [kg/m3] | speed of sound [m/s] | viscosity [mPa·s]
313.15 K, m1 = 0.3388 | – | 1540.3 ± 4.1 | –
313.15 K, m1 = 0.6111 | – | 1548.3 ± 4.1 | –
313.15 K, m1 = 0.6405 | – | 1550.9 ± 4.1 | –
313.15 K, m1 = 1.113 | – | 1571.8 ± 4.2 | –
313.15 K, m1 = 1.258 | – | 1580.9 ± 4.2 | –
313.15 K, m1 = 1.551 | – | 1595.3 ± 4.2 | –
313.15 K, m1 = 1.906 | – | 1613.8 ± 4.3 | –
313.15 K, m1 = 2.145 | – | 1624.5 ± 4.3 | –
313.15 K, m1 = 2.29 | – | 1630.2 ± 4.3 | –
313.15 K, m1 = 2.292 | – | 1631.4 ± 4.3 | –
313.15 K, m1 = 2.344 | – | 1634.6 ± 4.3 | –
313.15 K, m1 = 2.91 | – | 1659.9 ± 4.4 | –
313.15 K, m1 = 3.472 | – | 1683.4 ± 4.4 | –
313.15 K, m1 = 4.075 | – | 1702.8 ± 4.5 | –
313.15 K, m1 = 4.817 | – | 1727.1 ± 4.6 | –
313.15 K, m1 = 5.224 | – | 1733.1 ± 4.6 | –
313.15 K, m1 = 5.797 | – | 1742.3 ± 4.6 | –
313.15 K, m1 = 6.34 | – | 1747.6 ± 4.6 | –
313.15 K, m1 = 6.89 | – | 1751.5 ± 4.6 | –
313.15 K, m1 = 7.349 | – | 1751.7 ± 4.7 | –
313.3 K, m1 = 2.145 | 1277.4 ± 1 | – | –
313.55 K, m1 = 0.1329 | 1011.2 ± 0.8 | – | –
313.85 K, m1 = 0.6111 | 1080.1 ± 0.8 | – | –
313.95 K, m1 = 1.906 | 1248.8 ± 1 | – | –
313.95 K, m1 = 2.29 | 1293.8 ± 1.1 | – | –
314 K, m1 = 5.8 | 1619.4 ± 1.5 | – | –
314.1 K, m1 = 0.0875 | 1004.4 ± 0.8 | – | –
314.15 K, m1 = 7.764 | 1746 ± 1.7 | – | –
314.2 K, m1 = 2.344 | 1300 ± 1.1 | – | –
314.25 K, m1 = 0.6405 | 1084 ± 0.8 | – | –
314.35 K, m1 = 0.2466 | 1027.8 ± 0.8 | – | –
314.35 K, m1 = 7.349 | 1722 ± 1.7 | – | –
314.45 K, m1 = 0.3388 | 1041 ± 0.8 | – | –
314.6 K, m1 = 2.91 | 1362 ± 1.1 | – | –
314.7 K, m1 = 4.817 | 1542.3 ± 1.4 | – | –
314.95 K, m1 = 1.551 | 1204.4 ± 1 | – | –
314.95 K, m1 = 4.075 | 1477.2 ± 1.3 | – | –
315.05 K, m1 = 1.113 | 1147.9 ± 0.9 | – | –
315.05 K, m1 = 6.89 | 1692.9 ± 1.6 | – | –
315.1 K, m1 = 3.472 | 1419.3 ± 1.2 | – | –
315.9 K, m1 = 6.34 | 1655.7 ± 1.6 | – | –
315.95 K, m1 = 0.1329 | 1010.2 ± 0.8 | – | –
315.95 K, m1 = 7.349 | 1720.2 ± 1.7 | – | –
316.15 K, m1 = 0.6111 | 1079 ± 0.8 | – | –
316.2 K, m1 = 2.292 | 1292.7 ± 1.1 | – | –
316.4 K, m1 = 0.6405 | 1082.8 ± 0.8 | – | –
316.6 K, m1 = 5.224 | 1573.5 ± 1.4 | – | –
316.75 K, m1 = 0.0875 | 1003.3 ± 0.8 | – | –
316.8 K, m1 = 0.2466 | 1026.7 ± 0.8 | – | –
316.8 K, m1 = 0.3388 | 1039.9 ± 0.8 | – | –
316.85 K, m1 = 1.258 | 1166.1 ± 0.9 | – | –
316.9 K, m1 = 1.551 | 1203.1 ± 1 | – | –
317.15 K, m1 = 2.145 | 1274.9 ± 1.1 | – | –
317.25 K, m1 = 1.113 | 1146.8 ± 0.9 | – | –
317.5 K, m1 = 5.8 | 1616 ± 1.5 | – | –
317.6 K, m1 = 7.764 | 1742.3 ± 1.7 | – | –
317.65 K, m1 = 7.349 | 1718.4 ± 1.7 | – | –
317.8 K, m1 = 2.29 | 1291.2 ± 1.1 | – | –
317.9 K, m1 = 1.906 | 1246.3 ± 1 | – | –
317.9 K, m1 = 2.344 | 1297.2 ± 1.1 | – | –
318.15 K, m1 = 0.0875 | – | 1540.1 ± 4.1 | –
318.15 K, m1 = 0.1329 | – | 1539.2 ± 4.1 | 0.632 ± 0.007
318.15 K, m1 = 0.2466 | – | 1542.8 ± 4.1 | 0.655 ± 0.008
318.15 K, m1 = 0.3388 | – | 1544.7 ± 4.1 | 0.676 ± 0.008
318.15 K, m1 = 0.6111 | – | 1555.1 ± 4.1 | 0.738 ± 0.009
318.15 K, m1 = 0.6405 | – | 1557.5 ± 4.1 | 0.745 ± 0.009
318.15 K, m1 = 1.113 | – | 1574.6 ± 4.2 | 0.873 ± 0.01
318.15 K, m1 = 1.258 | – | 1583.5 ± 4.2 | 0.926 ± 0.011
318.15 K, m1 = 1.551 | – | 1597.5 ± 4.2 | 1.014 ± 0.012
318.15 K, m1 = 1.906 | – | 1606.7 ± 4.3 | 1.169 ± 0.014
318.15 K, m1 = 2.145 | – | 1623.3 ± 4.3 | 1.287 ± 0.015
318.15 K, m1 = 2.29 | – | 1629.6 ± 4.3 | 1.35 ± 0.016
318.15 K, m1 = 2.292 | 1291.3 ± 1.1 | 1631.3 ± 4.3 | –
318.15 K, m1 = 2.344 | – | 1633.9 ± 4.3 | 1.366 ± 0.016
318.15 K, m1 = 2.91 | – | 1657.1 ± 4.4 | 1.68 ± 0.02
318.15 K, m1 = 3.472 | – | 1678.7 ± 4.4 | 2.088 ± 0.025
318.15 K, m1 = 4.075 | – | 1696.7 ± 4.5 | 2.588 ± 0.031
318.15 K, m1 = 4.817 | – | 1717.9 ± 4.5 | 3.383 ± 0.042
318.15 K, m1 = 5.224 | – | 1724.7 ± 4.6 | 3.857 ± 0.048
318.15 K, m1 = 5.797 | – | 1732 ± 4.6 | 4.807 ± 0.06
318.15 K, m1 = 6.34 | – | 1735.3 ± 4.6 | 5.725 ± 0.072
318.15 K, m1 = 6.89 | – | 1740.7 ± 4.6 | 6.968 ± 0.087
318.15 K, m1 = 7.349 | – | 1740.9 ± 4.6 | 8.113 ± 0.1
318.25 K, m1 = 0.6111 | 1077.9 ± 0.8 | – | –
318.25 K, m1 = 4.817 | 1539 ± 1.4 | – | –
318.3 K, m1 = 2.91 | 1359.3 ± 1.2 | – | –
318.45 K, m1 = 6.89 | 1689.4 ± 1.6 | – | –
318.6 K, m1 = 0.1329 | 1009.1 ± 0.8 | – | –
318.65 K, m1 = 4.075 | 1474.2 ± 1.3 | – | –
318.8 K, m1 = 0.6405 | 1081.7 ± 0.8 | – | –
318.8 K, m1 = 3.472 | 1416.3 ± 1.2 | – | –
318.85 K, m1 = 1.551 | 1202 ± 1 | – | –
319.05 K, m1 = 0.0875 | 1002.2 ± 0.8 | – | –
319.05 K, m1 = 0.3388 | 1038.8 ± 0.8 | – | –
319.15 K, m1 = 1.113 | 1145.7 ± 0.9 | – | –
319.2 K, m1 = 0.2466 | 1025.6 ± 0.8 | – | –
319.3 K, m1 = 6.34 | 1652.5 ± 1.6 | – | –
319.3 K, m1 = 7.764 | 1740.4 ± 1.7 | – | –
320.05 K, m1 = 5.224 | 1570.1 ± 1.5 | – | –
320.5 K, m1 = 0.6111 | 1076.8 ± 0.9 | – | –
320.6 K, m1 = 4.075 | 1472.7 ± 1.3 | – | –
320.75 K, m1 = 0.1329 | 1008.1 ± 0.8 | – | –
320.85 K, m1 = 5.8 | 1612.8 ± 1.5 | – | –
321 K, m1 = 1.258 | 1163.6 ± 0.9 | – | –
321 K, m1 = 7.349 | 1714.9 ± 1.7 | – | –
321.05 K, m1 = 2.145 | 1272.2 ± 1.1 | – | –
321.25 K, m1 = 1.113 | 1144.5 ± 0.9 | – | –
321.3 K, m1 = 0.0875 | 1001.2 ± 0.8 | – | –
321.3 K, m1 = 0.3388 | 1037.8 ± 0.8 | – | –
321.35 K, m1 = 0.2466 | 1024.5 ± 0.8 | – | –
321.4 K, m1 = 2.29 | 1288.5 ± 1.1 | – | –
321.65 K, m1 = 2.344 | 1294.6 ± 1.1 | – | –
321.7 K, m1 = 1.906 | 1243.6 ± 1 | – | –
321.75 K, m1 = 4.817 | 1535.8 ± 1.4 | – | –
321.85 K, m1 = 6.89 | 1685.8 ± 1.6 | – | –
322.05 K, m1 = 2.292 | 1288.5 ± 1.1 | – | –
322.05 K, m1 = 2.91 | 1356.4 ± 1.2 | – | –
322.4 K, m1 = 0.6111 | 1075.8 ± 0.9 | – | –
322.5 K, m1 = 3.472 | 1413.3 ± 1.3 | – | –
322.55 K, m1 = 7.764 | 1736.9 ± 1.7 | – | –
322.6 K, m1 = 6.34 | 1649 ± 1.6 | – | –
322.75 K, m1 = 1.551 | 1199.5 ± 1 | – | –
322.95 K, m1 = 0.6405 | 1079.6 ± 0.9 | – | –
323.15 K, m1 = 0.0875 | – | 1545.6 ± 4.1 | –
323.15 K, m1 = 0.1329 | – | 1544.6 ± 4.1 | 0.58 ± 0.007
323.15 K, m1 = 0.2466 | – | 1547.7 ± 4.1 | 0.601 ± 0.007
323.15 K, m1 = 0.3388 | – | 1551.5 ± 4.1 | 0.621 ± 0.007
323.15 K, m1 = 0.6111 | – | 1560.9 ± 4.1 | 0.679 ± 0.008
323.15 K, m1 = 0.6405 | – | 1561 ± 4.1 | 0.686 ± 0.008
323.15 K, m1 = 1.113 | – | 1577.8 ± 4.2 | 0.804 ± 0.009
323.15 K, m1 = 1.258 | – | 1585.2 ± 4.2 | 0.853 ± 0.01
323.15 K, m1 = 1.551 | – | 1598.3 ± 4.2 | 0.935 ± 0.011
323.15 K, m1 = 1.906 | – | 1611 ± 4.3 | 1.077 ± 0.013
323.15 K, m1 = 2.145 | – | 1622.9 ± 4.3 | 1.183 ± 0.014
323.15 K, m1 = 2.29 | – | 1630 ± 4.3 | 1.245 ± 0.015
323.15 K, m1 = 2.292 | – | 1631.1 ± 4.3 | –
323.15 K, m1 = 2.344 | – | 1628.1 ± 4.3 | 1.254 ± 0.015
323.15 K, m1 = 2.91 | – | 1651.1 ± 4.4 | 1.537 ± 0.018
323.15 K, m1 = 3.472 | – | 1675.6 ± 4.4 | 1.908 ± 0.023
323.15 K, m1 = 4.075 | – | 1690.4 ± 4.5 | 2.349 ± 0.029
323.15 K, m1 = 4.817 | – | 1707.1 ± 4.5 | 3.051 ± 0.037
323.15 K, m1 = 5.224 | – | 1716.7 ± 4.5 | 3.464 ± 0.043
323.15 K, m1 = 5.797 | – | 1723.6 ± 4.6 | 4.283 ± 0.053
323.15 K, m1 = 6.34 | – | 1724.9 ± 4.6 | 5.066 ± 0.064
323.15 K, m1 = 6.89 | – | 1729.5 ± 4.6 | 6.121 ± 0.077
323.15 K, m1 = 7.349 | – | 1729.7 ± 4.6 | 7.071 ± 0.089
324.25 K, m1 = 7.764 | 1734.9 ± 1.7 | – | –
